US7691594B2, “Anticancer agent” (Fujifilm Corporation, priority 2006, dated 2010)

Assays:
[1] = test system: messenger RNA of PCDH20 gene in LU65 cells; assay: RT-PCR of PCDH20 gene messenger RNA expression after inhibitor treatment, LU65 cells; format: cell-based, human
Method: (§1) Specifically, the results were obtained by adding either 5-aza-deoxycytidine (5-aza-dCyd) serving as a DNA methyltransferase inhibitor to each cell type at concentrations of 5 or 10 μM for 5 days and/or trichostatin A (TSA) serving as a non-specific inhibitory substance for histone deacetylase to each cell type at concentrations of […] or […] for 12 hours before cell harvest during culture, and then carrying out RT-PCR, followed by comparison of the expression levels of PCDH20 gene messenger RNA via electrophoresis. The expression level of GAPDH was used as a control in RT-PCR.
(§2) Cell lines used herein were squamous cell lines EBC-1, LK-2, PC10, VMRC-LCP, LC-1sq, and ACC-LC-73; adenocarcinoma cell lines 11-18, A549, ABC-1, RERF-LC-OK, VMRC-LCD, SK-LC-3, and RERF-LC-KJ; and large cell carcinoma cell lines KNS-62, 86-2, LU65, PC-13, ACC-LC-33, NCI-H460, and LU99A. As lung cancer samples derived from clinical specimens, paraffin-embedded samples derived from 53 types of adenocarcinoma and rapidly-frozen samples derived from 59 types of adjacent normal site were used. Cancer samples derived from clinical specimens were obtained from the National Cancer Center, Hokushin General Hospital of Nagano Prefectural Welfare Federation and used under agreement with each patient and approval of the ethical committee of each organization. […]

[2] = test system: messenger RNA of PCDH20 gene in ABC-1 cells; assay: RT-PCR of PCDH20 gene messenger RNA expression after inhibitor treatment, ABC-1 cells; format: cell-based, human
Method: as §1, §2

[3] = 5-aza-dCyd 5 μM and 10 μM for 5 days, GAPDH control
[4] = TSA 100 ng/ml for 12 hours before harvest together with 5-aza-dCyd

| Compound | expression level of messenger RNA of PCDH20 gene (RT-PCR) [1, 3] | expression level of messenger RNA of PCDH20 gene (RT-PCR) [2, 3] | expression level of messenger RNA of PCDH20 gene (RT-PCR), combination [1, 4] | expression level of messenger RNA of PCDH20 gene (RT-PCR), combination [2, 4] |
| --- | --- | --- | --- | --- |
| Nc1ncn([C@H]2C[C@H](O)[C@@H](CO)O2)c(=O)n1 [5-aza-deoxycytidine] | transcription suppression was canceled | transcription suppression was canceled |  |  |
| CC(/C=C/C(=O)NO)=C\[C@@H](C)C(=O)c1ccc(N(C)C)cc1 [trichostatin A] |  |  | elevated synergistically | elevated synergistically |
